Tests used:
[1] = [Ca2+] channel binding affinity was evaluated by its ability to displace [3H]-PN-200-110 in rat brain synaptosomes; type: subcellular
[2] = target: T1, Adrenergic receptor alpha-1 (Rattus norvegicus, UniProt P15823+P23944+P43140); test: Alpha-1 adrenergic receptor binding affinity was evaluated by its ability to displace [3H]prazosin in rat brain synaptosomes; type: subcellular
T1 sequence (P15823 whole entry): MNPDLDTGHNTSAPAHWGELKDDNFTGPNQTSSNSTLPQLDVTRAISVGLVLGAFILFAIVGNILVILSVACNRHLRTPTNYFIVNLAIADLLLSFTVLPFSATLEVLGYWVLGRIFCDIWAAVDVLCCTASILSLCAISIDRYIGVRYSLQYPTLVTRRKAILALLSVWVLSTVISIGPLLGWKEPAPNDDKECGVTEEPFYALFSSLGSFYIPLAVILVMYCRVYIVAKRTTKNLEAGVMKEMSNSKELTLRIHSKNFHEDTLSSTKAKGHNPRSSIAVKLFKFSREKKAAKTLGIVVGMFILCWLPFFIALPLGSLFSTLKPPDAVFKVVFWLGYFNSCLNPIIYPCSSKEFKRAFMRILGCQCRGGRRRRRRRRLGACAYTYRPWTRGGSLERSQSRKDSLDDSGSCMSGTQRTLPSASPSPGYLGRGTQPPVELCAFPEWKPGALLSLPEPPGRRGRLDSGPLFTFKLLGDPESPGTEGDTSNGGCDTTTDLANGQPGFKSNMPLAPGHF
T1 sequence (P23944 whole entry): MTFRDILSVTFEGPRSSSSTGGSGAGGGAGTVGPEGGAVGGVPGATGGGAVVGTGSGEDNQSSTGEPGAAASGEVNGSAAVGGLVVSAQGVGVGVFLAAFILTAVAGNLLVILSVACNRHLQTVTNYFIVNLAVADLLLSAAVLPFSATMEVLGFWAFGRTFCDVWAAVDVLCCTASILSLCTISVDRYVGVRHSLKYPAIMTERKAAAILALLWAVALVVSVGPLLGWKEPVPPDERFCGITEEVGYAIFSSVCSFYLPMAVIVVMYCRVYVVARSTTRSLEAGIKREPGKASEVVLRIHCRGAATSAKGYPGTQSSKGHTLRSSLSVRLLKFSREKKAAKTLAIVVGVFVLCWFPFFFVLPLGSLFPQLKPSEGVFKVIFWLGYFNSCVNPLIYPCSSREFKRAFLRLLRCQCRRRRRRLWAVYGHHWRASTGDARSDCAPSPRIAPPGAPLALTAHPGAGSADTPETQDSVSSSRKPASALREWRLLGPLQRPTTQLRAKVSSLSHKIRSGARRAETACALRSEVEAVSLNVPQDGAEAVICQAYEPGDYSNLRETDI
T1 sequence (P43140 whole entry): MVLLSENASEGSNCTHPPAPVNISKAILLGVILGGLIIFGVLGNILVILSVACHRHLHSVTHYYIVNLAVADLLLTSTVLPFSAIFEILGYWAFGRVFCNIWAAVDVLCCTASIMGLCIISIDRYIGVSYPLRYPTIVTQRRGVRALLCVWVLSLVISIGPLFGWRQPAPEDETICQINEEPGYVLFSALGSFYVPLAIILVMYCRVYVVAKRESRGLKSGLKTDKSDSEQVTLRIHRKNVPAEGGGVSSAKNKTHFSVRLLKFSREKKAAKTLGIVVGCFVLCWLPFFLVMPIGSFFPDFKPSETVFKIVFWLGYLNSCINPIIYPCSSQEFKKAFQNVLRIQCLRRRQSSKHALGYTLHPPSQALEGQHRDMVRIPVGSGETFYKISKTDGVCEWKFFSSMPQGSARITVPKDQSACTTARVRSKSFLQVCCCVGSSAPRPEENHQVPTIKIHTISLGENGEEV

Rattus norvegicus = organism: Rattus norvegicus; test: Inhibition constant by its ability to inhibit (act through Ca++ ion channel) contractions induced by K+ depolarization in rat dorsal aorta; type: functional
Oryctolagus cuniculus = organism: Oryctolagus cuniculus; test: Inhibition constant by its ability to inhibit contractions induced by phenylephrine in rabbit dorsal aorta; type: functional

Ki [1] [µM]	Ki [2] [µM]	Compound	Kb (Rattus norvegicus) [µM]	Kb (Oryctolagus cuniculus) [µM]
0.181	> 1	CO/C(O)=C1\C(C)=NC(C)=C(C(=O)n2ccnc2)[C@@H]1c1cccc([N+](=O)[O-])c1	0.031	
0.0078	> 1	CO/C(O)=C1\C(C)=NC(C)=C(C(=O)n2ccnc2)[C@H]1c1cccc([N+](=O)[O-])c1	0.0036	

Continued, compound first:

Compound	Ki [1] [µM]	Ki [2] [µM]	Kb (Rattus norvegicus) [µM]	Kb (Oryctolagus cuniculus) [µM]
COC(=O)C1=C(C)NC(C)=C(C(=O)NCCCN2CCN(c3ccccc3OC)CC2)[C@H]1c1cccc([N+](=O)[O-])c1	0.016	0.0046	0.0029	0.0083
COc1cc2nc(N3CCN(C(=O)c4ccco4)CC3)nc(N)c2cc1OC [PRAZOSIN]	> 1		> 1	0.0016
CO/C(O)=C1\C(C)=NC(C)=C(C(=O)NCCCN2CCN(c3ccccc3OC)CC2)C1c1cccc([N+](=O)[O-])c1 (centres undefined)	0.035	0.013	0.0063	
COC(=O)C1=C(C)NC(C)=C(C(=O)NCCCN2CCN(c3ccccc3OC)CC2)[C@@H]1c1cccc([N+](=O)[O-])c1	0.338	0.036	0.107	0.05
COC(=O)C1=C(C)NC(C)=C(C(=O)OC)C1c1ccccc1[N+](=O)[O-] [NIFEDIPINE]	0.00053	> 1	0.0005	> 1
